Assay results taken from patent publication US10865208B2, “ATG7 inhibitors and the uses thereof” (Millennium Pharmaceuticals, Inc., priority 2016, dated 2020).

Target: recombinant human His-ATG7 enzyme (Homo sapiens (Human), UniProt O95352)
Assay: ATG7 Enzyme Assay (HTRF/FRET, ATG3-GST and Flag-Gabarap)
Assay type: biochemical
Conditions: for inhibition at 0.069 µM: Concentration 0.069 μM; for inhibition at 0.069 µM / inhibition at 0.111 µM / inhibition at 0.123 µM: read-out: Percent Inhibition; for inhibition at 0.111 µM: Concentration 0.111 μM; for inhibition at 0.123 µM: Concentration 0.123 μM
Description: Example 97: ATG7 Enzyme Assay
The total volume of the ATG7 enzymatic assay is 50 μL and contains 50 mM HEPES Hemisodium (pH 7.5), 0.05% BSA, 0.01% Tween-20, 25 mM NaCl, 5 mM MgCl2, 10 μM ATP, 250 μM GSH, 5 nM ATG3-GST, 5 nM Flag-Gabarap, 100 μM TCEP and 0.15 nM recombinant human His-ATG7 enzyme. The enzymatic reaction mixture, with and without inhibitor, was incubated at 24° C. for 105 min in a 384-well plate before termination with […] of Stop/Detection buffer (0.1M HEPES Hemisodium pH 7.5, 0.05% Tween20, 20 mM EDTA, 410 mM KF, 0.53 nM Europium-Cryptate labeled monoclonal anti-Flag M2 Antibody (CisBio International) and 8.125 μg/ml PHYCOLINK goat anti-GST allophycocyanin (XL-APC) antibody (Prozyme)). After incubation for 2 hours at 24° C., quantification of FRET is performed on the Pherostar™ (BMG Labtech). Percentage inhibition values at a single concentration or enzyme inhibition (IC50) values are determined from those curves. One skilled in the art will appreciate that the values generated either as percentage inhibition at a single concentration or IC50 values are subject to experimental variation.

Chain of recombinant human His-ATG7 enzyme (O95352 whole entry): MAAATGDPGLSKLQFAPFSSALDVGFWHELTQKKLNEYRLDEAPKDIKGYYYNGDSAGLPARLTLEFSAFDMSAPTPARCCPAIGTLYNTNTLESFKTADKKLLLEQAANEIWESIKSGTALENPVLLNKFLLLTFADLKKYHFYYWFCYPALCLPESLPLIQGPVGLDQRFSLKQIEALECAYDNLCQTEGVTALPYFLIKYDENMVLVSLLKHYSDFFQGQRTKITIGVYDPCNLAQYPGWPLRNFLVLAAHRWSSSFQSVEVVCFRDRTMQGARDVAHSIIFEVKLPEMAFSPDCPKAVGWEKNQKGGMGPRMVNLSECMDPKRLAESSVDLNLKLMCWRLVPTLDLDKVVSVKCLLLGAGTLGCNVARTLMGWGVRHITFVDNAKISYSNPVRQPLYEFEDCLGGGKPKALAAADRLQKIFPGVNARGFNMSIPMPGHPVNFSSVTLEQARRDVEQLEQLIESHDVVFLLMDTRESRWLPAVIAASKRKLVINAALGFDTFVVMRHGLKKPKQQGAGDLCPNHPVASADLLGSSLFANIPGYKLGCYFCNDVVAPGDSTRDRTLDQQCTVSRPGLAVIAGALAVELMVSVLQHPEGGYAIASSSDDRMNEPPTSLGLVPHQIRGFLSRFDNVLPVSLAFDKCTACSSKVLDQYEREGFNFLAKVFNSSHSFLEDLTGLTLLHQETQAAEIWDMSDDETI

SMILES	IC50	inhibition at 0.069 µM	inhibition at 0.111 µM	inhibition at 0.123 µM
CCc1nn([C@@H]2O[C@H](COS(N)(=O)=O)[C@@H](O)[C@H]2O)c2ncnc(N)c12 [Compound I-6, [(2R,3S,4R,5R)-5-(4-amino-3-ethyl-1H-pyrazolo[3,4-d]pyrimidin-1-yl)-3,4-dihydroxytetrahydrofuran-2-yl]methyl Sulfamate]	100 to 500 nM	31%		
Nc1ncnc2c1c(C1CC1)nn2[C@@H]1O[C@H](COS(N)(=O)=O)[C@@H](O)[C@@H]1F [Compound I-108, [(2R,3R,4S,5R)-5-(4-amino-3-cyclopropyl-1H-pyrazolo[3,4-d]pyrimidin-1-yl)-4-fluoro-3-hydroxytetrahydrofuran-2-yl]methyl sulfamate]	> 500 nM		19%	
Nc1ncnc2c1cnn2[C@H]1C[C@H](O)C(COS(N)(=O)=O)O1 (stereo in doubt) [Compound I-226, [(2S,3S,5R)-5-(4-amino-1H-pyrazolo[3,4-d]pyrimidin-1-yl)-3-hydroxytetrahydrofuran-2-yl]methyl sulfamate]	> 500 nM		5%	
Cc1ccc(CSc2nn([C@@H]3O[C@H](COS(N)(=O)=O)[C@@H](O)[C@H]3O)c3ncnc(N)c23)cc1 [Compound I-41, [(2R,3S,4R,5R)-5-{4-amino-3-[(4-methylbenzyl)sulfanyl]-1H-pyrazolo[3,4-d]pyrimidin-1-yl}-3,4-dihydroxytetrahydrofuran-2-yl]methyl sulfamate]	20 to 50 nM		85%	
Cc1occc1Sc1nn([C@@H]2O[C@H](COS(N)(=O)=O)[C@@H](O)[C@H]2O)c2ncnc(N)c12 [Compound I-81, [(2R,3S,4R,5R)-5-{4-amino-3-[(2-methyl-3-furyl)sulfanyl]-1H-pyrazolo[3,4-d]pyrimidin-1-yl}-3,4-dihydroxytetrahydrofuran-2-yl]methyl sulfamate]	50 to 100 nM			69%
Nc1ncnc2c1c(Sc1ccccc1Cl)nn2[C@@H]1O[C@H](COS(N)(=O)=O)[C@@H](O)[C@H]1O [Compound I-78, [(2R,3S,4R,5R)-5-{4-amino-3-[(2-chlorophenyl)sulfanyl]-1H-pyrazolo[3,4-d]pyrimidin-1-yl}-3,4-dihydroxytetrahydrofuran-2-yl]methyl sulfamate]	20 to 50 nM			80%
Nc1ncnc2c1c(SCc1cccnn1)nn2[C@@H]1O[C@H](COS(N)(=O)=O)[C@@H](O)[C@@H]1F [Compound I-127, [(2R,3R,4S,5R)-5-{4-amino-3-[(pyridazin-3-ylmethyl)sulfanyl]-1H-pyrazolo[3,4-d]pyrimidin-1-yl}-4-fluoro-3-hydroxytetrahydrofuran-2-yl]methyl sulfamate]	50 to 100 nM		61%	
NCC#Cc1nn([C@@H]2O[C@H](COS(N)(=O)=O)[C@@H](O)[C@H]2O)c2ncnc(N)c12 [Compound I-17, {(2R,3S,4R,5R)-5-[4-amino-3-(3-aminoprop-1-yn-1-yl)-1H-pyrazolo[3,4-d]pyrimidin-1-yl]-3,4-dihydroxytetrahydrofuran-2-yl}methyl Sulfamate]	> 500 nM	10%		
Nc1ncnc2c1c(Sc1cccc(Cl)c1)nn2[C@@H]1O[C@H](COS(N)(=O)=O)[C@@H](O)[C@H]1O [Compound I-40, [(2R,3S,4R,5R)-5-{4-amino-3-[(3-chlorophenyl)sulfanyl]-1H-pyrazolo[3,4-d]pyrimidin-1-yl}-3,4-dihydroxytetrahydrofuran-2-yl]methyl sulfamate]	< 20 nM			85%
Nc1ncnc2c1c(Sc1ccc3ccccc3c1)nn2[C@H]1C[C@H](O)[C@@H](COS(N)(=O)=O)O1 [Compound I-166, {(2R,3S,5R)-5-[4-amino-3-(2-naphthylsulfanyl)-1H-pyrazolo[3,4-d]pyrimidin-1-yl]-3-hydroxytetrahydrofuran-2-yl}methyl sulfamate]	100 to 500 nM		50%	
Nc1ncnc2c1c(SCc1cccc(F)c1)nn2[C@@H]1O[C@H](COS(N)(=O)=O)[C@@H](O)[C@H]1O [Compound I-44, [(2R,3S,4R,5R)-5-{4-amino-3-[(3-fluorobenzyl)sulfanyl]-1H-pyrazolo[3,4-d]pyrimidin-1-yl}-3,4-dihydroxytetrahydrofuran-2-yl]methyl sulfamate]	20 to 50 nM			84%
CC(C)(C)Sc1nn([C@@H]2O[C@H](COS(N)(=O)=O)[C@@H](O)[C@H]2O)c2ncnc(N)c12 [Compound I-53, {(2R,3S,4R,5R)-5-[4-amino-3-(tert-butylsulfanyl)-1H-pyrazolo[3,4-d]pyrimidin-1-yl]-3,4-dihydroxytetrahydrofuran-2-yl}methyl sulfamate]	20 to 50 nM			82%
Cc1ccc(Sc2nn([C@@H]3O[C@H](COS(N)(=O)=O)[C@@H](O)[C@H]3O)c3ncnc(N)c23)cc1 [Compound I-89, [(2R,3S,4R,5R)-5-{4-amino-3-[(4-methylphenyl)sulfanyl]-1H-pyrazolo[3,4-d]pyrimidin-1-yl}-3,4-dihydroxytetrahydrofuran-2-yl]methyl sulfamate]	< 20 nM		86%	
Cn1cnc(Sc2nn([C@@H]3O[C@H](COS(N)(=O)=O)[C@@H](O)[C@@H]3F)c3ncnc(N)c23)c1 [Compound I-137, [(2R,3R,4S,5R)-5-{4-amino-3-[(1-methyl-1H-imidazol-4-yl)sulfanyl]-1H-pyrazolo[3,4-d]pyrimidin-1-yl}-4-fluoro-3-hydroxytetrahydrofuran-2-yl]methyl sulfamate]	20 to 50 nM		80%	
Nc1ncnc2c1c(Sc1cccc(OC(F)(F)F)c1)nn2[C@H]1C[C@H](O)[C@@H](COS(N)(=O)=O)O1 [Compound I-198, [(2R,3S,5R)-5-(4-amino-3-{[3-(trifluoromethoxy)phenyl]sulfanyl}-1H-pyrazolo[3,4-d]pyrimidin-1-yl)-3-hydroxytetrahydrofuran-2-yl]methyl sulfamate]	100 to 500 nM		42%	
Nc1ncnc2c1c(Sc1ccc3c(c1)OCO3)nn2[C@H]1C[C@H](O)[C@@H](COS(N)(=O)=O)O1 [Compound I-175, {(2R,3S,5R)-5-[4-amino-3-(1,3-benzodioxol-5-ylsulfanyl)-1H-pyrazolo[3,4-d]pyrimidin-1-yl]-3-hydroxytetrahydrofuran-2-yl}methyl sulfamate]	50 to 100 nM		66%	
Nc1ncnc2c1c(Sc1ccncc1)nn2[C@@H]1O[C@H](COS(N)(=O)=O)[C@@H](O)[C@@H]1F [Compound I-150, {(2R,3R,4S,5R)-5-[4-amino-3-(pyridin-4-ylsulfanyl)-1H-pyrazolo[3,4-d]pyrimidin-1-yl]-4-fluoro-3-hydroxytetrahydrofuran-2-yl}methyl Sulfamate]	100 to 500 nM		46%	
Nc1ncnc2c1c(SCc1ccccn1)nn2[C@@H]1O[C@H](COS(N)(=O)=O)[C@@H](O)[C@@H]1F [Compound I-119, [(2R,3R,4S,5R)-5-{4-amino-3-[(pyridin-2-ylmethyl)sulfanyl]-1H-pyrazolo[3,4-d]pyrimidin-1-yl}-4-fluoro-3-hydroxytetrahydrofuran-2-yl]methyl sulfamate]	50 to 100 nM		65%	
COCc1nn([C@@H]2O[C@H](COS(N)(=O)=O)[C@@H](O)[C@H]2O)c2ncnc(N)c12 [Compound I-19, {(2R,3S,4R,5R)-5-[4-amino-3-(methoxymethyl)-1H-pyrazolo[3,4-d]pyrimidin-1-yl]-3,4-dihydroxytetrahydrofuran-2-yl}methyl Sulfamate]	100 to 500 nM			32%
Nc1ncnc2c1c(C(F)(F)F)nn2[C@H]1C[C@H](O)[C@@H](COS(N)(=O)=O)O1 [Compound I-171, {(2R,3S,5R)-5-[4-amino-3-(trifluoromethyl)-1H-pyrazolo[3,4-d]pyrimidin-1-yl]-3-hydroxytetrahydrofuran-2-yl}methyl Sulfamate]	100 to 500 nM		48%	
Cc1cccc(Sc2nn([C@@H]3O[C@H](COS(N)(=O)=O)[C@@H](O)[C@H]3O)c3ncnc(N)c23)c1 [Compound I-69, [(2R,3S,4R,5R)-5-{4-amino-3-[(3-methylphenyl)sulfanyl]-1H-pyrazolo[3,4-d]pyrimidin-1-yl}-3,4-dihydroxytetrahydrofuran-2-yl]methyl sulfamate]	< 20 nM		86%	
Nc1ncnc2c1c(Sc1ccc(F)cc1)nn2[C@H]1C[C@H](O)[C@H](COS(N)(=O)=O)O1 [Compound I-223, [(2S,3S,5R)-5-{4-amino-3-[(4-fluorophenyl)sulfanyl]-1H-pyrazolo[3,4-d]pyrimidin-1-yl}-3-hydroxytetrahydrofuran-2-yl]methyl sulfamate]	100 to 500 nM		35%	
NC(=S)c1nn([C@@H]2O[C@H](COS(N)(=O)=O)[C@@H](O)[C@H]2O)c2ncnc(N)c12 [Compound I-60, [(2R,3S,4R,5R)-5-(4-amino-3-carbamothioyl-1H-pyrazolo[3,4-d]pyrimidin-1-yl)-3,4-dihydroxytetrahydrofuran-2-yl]methyl Sulfamate]	50 to 100 nM			59%
